Columns and labels:
[1] = system: capillary resistance of rats; assay: Capillary resistance of rats after oral administration (petechial index); assay type: in vivo, rat (Wistar); settings: rat
Method: The increase in the capillary resistance is evaluated by the modification of the petechial index (negative pressure inducing the extravasation of the erythrocytes), measured by a method derived from the angiosterrometer of Parrot.
The studies are carried out on male Wistar rats with an average weight of 200 g (approximate age six weeks). The bottom area of the back is shorn, then the hair is pulled by means of a paste based on a derivative of thioglycolic acid and calcium hydroxide. After approximately 30 min, the skin is abundantly rinsed and dried.
On the day of the study, the rats are maintained without constraint. A low pressure of 80 mm of mercury is applied. If the petechiae (extravasation of erythrocytes) have not appeared within 15 sec, the low pressure is increased as a countermeasure, keeping the suction cap at the same place.
The minimum low pressure where petechias appear, in mm of mercury, expresses the basal capillary resistance (before any treatment). Two measurements are made for each test at different sites on of the back.
The rats are treated by the oral route. […] All the measurements are done in the blind mode.
A percentage of variation in the capillary resistances of the animals treated compared to their basal capillary resistance is calculated for each compound studied, at each treatment time and compared with the control group (excipient only) or the reference group.

[2] = system: mice; assay: Single oral administration toxicity in mice; assay type: in vivo, mouse
Excerpt: (§1) Moreover, the compounds of the invention and their possible salts have a very low toxicity.

[3] = system: saphenous vein in rabbits; assay: Contractile effect on the rabbit saphenous vein precontracted by a depolarizing physiological solution (K+ 40 mM); assay type: cell-based; settings: Oryctolagus cuniculus, precontracted with 40 mM potassium; for Emax: % of maximum contraction induced by hyperpotassic solutions; for EC50: read-out: ED50 (the source's name)
Method: The contractile effects are measured in vitro under static conditions on vascular capacitance or resistance rings of saphenous, femoral, jugular, mesenteric, and caval veins . . . and on femoral, carotid, basilar, or mesenteric arteries, as well as the thoracic or abdominal aorta . . . in rats (Wistar, 200-250 g), rabbits (New Zealand, 2-2.5 kg), guinea pigs (Dunkin Hartley 250-300 g).
The rings are placed in a chamber for isolated organs (25 mL for capacitance vessels and 2.5 mL for resistance vessels according to Mulvany), and maintained under isometric conditions using two rigid threads inserted inside the vessel, avoiding causing damage to the endothelium. The vessels are bathed in a modified Krebs solution (in mM: NaCl=118; KCl=4.6; CaCl2 =2.5; MgSO4 =1.2; KH2 PO4 =1.17; NaHCO3 =25; glucose=11), continuously aerated using a gaseous mixture of 95% O2 and 5% Co2, at a pH=7.4, and regulated by thermostat at 37° C. The rings are adjusted to their optimal point as far as the tension-length relationship is concerned. The tensions developed generate an electrical signal through the intermediary of a force sensor (Wheatstone bridge). […] The pharmacological studies are carried out after a few standardized preliminary contractile stimulations using a depolarizing solution (hyperpotassic type obtained by replacing NaCl with KCl in equimolar quantities), along with rinsings and periods of equilibration in a pure physiological solution. The presence of endothelium is verified by the relaxation induced by increasing the concentration of acetylcholine after the stabilization of a vascular precontraction.
The forces of contraction developed by the vascular rings in response to the different compounds are studied on quiescent or electrically stimulated vessels (5-8 Hz), by a "physiological" depolarizing hyperpotassic solution (KCl: 20, 40 mM), by noradrenaline (increasing concentrations), [and by] serotonin (increasing concentrations).
The contractions are expressed in mg force or as a percentage of the maximum contraction at the time of the depolarization with a "physiological" hyperpotassic solution.
The contractile effect of different compounds on the saphenous vein in rabbits, precontracted by a depolarizing "physiological" solution with a potassium concentration of 40 mM, is given as an illustration; the maximum effect produced by each compound is expressed as a percentage of the maximum contraction induced by depolarizing hyperpotassic solutions and as value of ED50): […]

[4] = system: hyperpermeability induced by zymosan in rats; assay: Inflammatory hyperpermeability induced by zymosan in rats; assay type: in vivo, rat (Wistar); settings: rat, oral
Method: The vascular permeability is studied in vivo by measuring the extravasation of albumin, the quantity of which is determined using an albumin-binding dye (Evans blue).
The hyperpermeability is induced by the intradermal injection of a solution of histamine, bradykinin, or zymosan.
The abdominal walls of the rats (Wistar, 200-230 g) are shorn 1 h before the start of the experiment. The product to be tested is injected by the intraperitoneal route or orally 1-4 h before the sacrifice. The rats are anesthetized with a halothane mixture. They then receive an intradermal injection in their abdomen of 0.10 or 0.15 mL (or for histamine 6.7 or […]) of inflammatory agent and an intravenous injection of 1 mL of 0.5% Evans blue solution in the vein of the penis. These injections are carried out 30 min before the sacrificing.
30 min after these two injections, the rats are sacrificed by cervical dislocation.
At the site of the injection of the inflammatory agent, the skin is cut and placed into glass tubes with a ground[-glass] neck containing 3 mL of fuming hydrochloric acid. […] After allowing the preparation to stand for 30 min, 7 mL of dichloromethane are added. The tubes are periodically agitated for 1 h. The aqueous phase is eliminated by aspiration, and the organic "dichloromethane" phase is filtered. The optical densities are quantified by absorption spectrophotometry at a wavelength of 620 nm, against a blank [control] containing only dichloromethane. The averages of the optical densities of the different lots of treated or control animals are calculated, then a percentage of variation of the values corresponding to the treated [experimental] animals compared to those of the control animals is calculated.

[5] = system: fibroblastic cell lines of mice (L929); assay: Cytotoxicity on L929 fibroblastic cell lines (neutral red incorporation); assay type: cell-based, mouse; settings: L929, up to concentrations equal to their solubility in an aqueous medium
Excerpt: as §1

[6] = single oral administration, 1 g/kg
[7] = single oral administration of 500 mg/kg

Compound | Increase of capillary resistance, effects after 4 h ([1]; 0.1 mg/kg) | Increase of capillary resistance, effect after 6 h ([1]; 0.1 mg/kg) | observed signs [2, 6] | toxic effect and mortality [2, 6] | Emax [3] [%] | EC50 [3] [µM] | Zymosan-induced hyperpermeability, effect after 2 h ([4]; 5 mg/kg) | Zymosan-induced hyperpermeability, effect after 4 h ([4]; 5 mg/kg) | Increase of capillary resistance, effects after 4 h ([1]; 5 mg/kg) | Increase of capillary resistance, effect after 6 h ([1]; 5 mg/kg) | cytotoxicity (viability by neutral red incorporation) [5] | Zymosan-induced hyperpermeability, effect after 2 h ([4]; 0.1 mg/kg) | Zymosan-induced hyperpermeability, effect after 4 h ([4]; 0.1 mg/kg) | observed signs [2, 7] | toxic effect and mortality [2, 7]
Cc1nc2c(s1)C(=O)c1ccccc1C2=O [Example h, 4,9-Dihydro-4,9-dioxo-2-methylnaphtho[2,3-d]thiazole] | 19 % of the control | 19 % of the control | diarrheas | no observable toxic effect and no mortality | 29 ± 6 | 0.086 |  |  |  |  |  |  |  |  | 
O=C1c2ccccc2C(=O)c2sc(-c3ccsc3)nc21 [Example 21, 4,9-Dihydro-4,9-dioxo-2-(3-thienyl)-naphtho[2,3-d]thiazole] |  |  |  |  |  |  | -22 % of the control | -21 % of the control | 10 % of the control | 22 % of the control | noncytotoxic |  |  |  | 
O=C1c2ccccc2C(=O)c2oc(-c3ccccc3F)nc21 [Example 3, 4,9-Dihydro-4,9-dioxo-2-(2-fluorophenyl)-naphtho[2,3-d]oxazole] |  |  |  |  | 17 ± 6 | 0.036 |  |  | 27 % of the control | 18 % of the control | noncytotoxic | -22 % of the control | -26 % of the control | slight diarrheas | no observable toxic effect and no mortality
O=C1c2ccccc2C(=O)c2oc(-c3ccccc3)nc21 [Example f, 4,9-Dihydro-4,9-dioxo-2-phenylnaphtho[2,3-d]oxazole] | 7 % of the control | 17 % of the control |  | no observable toxic effect and no mortality | 15 ± 1 | 0.021 |  |  |  |  | noncytotoxic | -15 % of the control | -22 % of the control |  | 
O=C1c2ccccc2C(=O)c2sc(-c3ccccc3)nc21 [Example j, 4,9-Dihydro-4,9-dioxo-2-phenylnaphtho[2,3-d]thiazole] |  |  |  |  | 16 ± 6 | 0.03 |  |  |  |  | noncytotoxic | -14 % of the control | -32 % of the control |  | no observable toxic effect and no mortality
O=C1c2ccccc2C(=O)c2oc(-c3cccc(F)c3)nc21 [Example 4, 4,9-Dihydro-4,9-dioxo-2-(3-fluorophenyl)-naphtho[2,3-d]oxazole] |  |  |  |  | 29 ± 11 | 0.042 |  |  |  |  | noncytotoxic |  |  |  | 
O=C1c2ccccc2C(=O)c2sc(-c3cccs3)nc21 [Example 20, 4,9-Dihydro-4,9-dioxo-2-(2-thienyl)-naphtho[2,3-d]thiazole] |  |  |  |  | 24 ± 4 | 0.11 |  |  |  |  | noncytotoxic |  |  |  | 
